Measured values taken from PubChem BioAssay (NCI).
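Step 1: Grow cells in 96-well plates. Step 2: Expose to compound for 48 hours at 5 concentrations. Step 3: Interpolate endpoints linearly; if unreached, use highest concentration. GI50: concentration for 50% inhibition of growth. The concentration for full growth arrest is given as TGI.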

What was measured:
Assay in all cases: growth of human tumour cells (NCI), 48 h
[1] = test system: SK-MEL-2 melanoma
[2] = test system: MALME-3M melanoma
[3] = test system: HOP-62 NSCLC
[4] = test system: SR leukemia
[5] = test system: DU-145 prostate
[6] = test system: KM12 colon
[7] = test system: SF-539 CNS
[8] = test system: LOX IMVI melanoma
[9] = test system: A498 renal
[10] = test system: NCI-H460 lung
[11] = test system: M14 melanoma
[12] = test system: SNB-75 CNS
[13] = test system: UO-31 renal
[14] = test system: UACC-257 melanoma
[15] = test system: NCI-H226 lung
[16] = test system: OVCAR-4 ovarian
[17] = test system: MDA-MB-435
[18] = test system: K-562 leukemia
[19] = test system: TK-10 renal
[20] = test system: RXF 393 renal
[21] = test system: HL-60(TB) leukemia
[22] = test system: SF-268 CNS
[23] = test system: MDA-MB-231 breast
[24] = test system: SN12C renal
[25] = test system: SK-OV-3 ovarian
[26] = test system: RPMI-8226 leukemia
[27] = test system: HOP-92 NSCLC
[28] = test system: HCT-15 colon
[29] = test system: NCI-H23 lung
[30] = test system: BT-549 breast
[31] = test system: SK-MEL-5 melanoma
[32] = test system: SK-MEL-28 melanoma
[33] = test system: IGROV1 ovarian
[34] = test system: U251 CNS
[35] = test system: PC-3 prostate
[36] = test system: OVCAR-3 ovarian
[37] = test system: ACHN renal
[38] = test system: A549 NSCLC
[39] = test system: COLO 205 colon
[40] = test system: HCT-116 colon
[41] = test system: OVCAR-8 ovarian
[42] = test system: UACC-62 melanoma
[43] = test system: SW-620 colon
[44] = test system: CAKI-1 renal
[45] = test system: HS 578T breast
[46] = test system: HT29 colon
[47] = test system: MOLT-4 leukemia
[48] = test system: HCC-2998 colon
[49] = test system: CCRF-CEM leukemia
[50] = test system: EKVX NSCLC
[51] = test system: MCF7 breast
[52] = test system: OVCAR-5 ovarian
[53] = test system: NCI-H522 lung
[54] = test system: T-47D breast
[55] = test system: 786-0 renal
[56] = test system: SNB-19 CNS
[57] = test system: SF-295 CNS
[58] = test system: MDA-MB-468 breast

Q: Which results are given for `O=C(Nc1ccc(F)c(Cl)c1)c1cc(-c2ccc(F)cc2F)ccc1O`?
A: GI50 [1]: 1400 nM; TGI [1]: 3.71 µM; GI50 [2]: 1910 nM; TGI [2]: 5.3 µM; GI50 [3]: 2240 nM; TGI [3]: 5.38 µM; GI50 [4]: 2390 nM; TGI [4]: 9.53 µM; GI50 [5]: 3.01 µM; TGI [5]: > 100 µM; GI50 [6]: 2570 nM; TGI [6]: 6.83 µM; GI50 [7]: 2580 nM; TGI [7]: 10.6 µM; GI50 [8]: 2890 nM; TGI [8]: 8.25 µM; GI50 [9]: 2270 nM; TGI [9]: 6.31 µM; GI50 [10]: 2190 nM; TGI [10]: 8.82 µM; GI50 [11]: 2300 nM; TGI [11]: 6.88 µM; GI50 [12]: 1050 nM; TGI [12]: 4.68 µM; GI50 [13]: 2490 nM; TGI [13]: 12.3 µM; GI50 [14]: 1670 nM; TGI [14]: 6.15 µM; GI50 [15]: 2100 nM; TGI [15]: 7 µM; GI50 [16]: 2490 nM; TGI [16]: 15.2 µM; GI50 [17]: 2170 nM; TGI [17]: 7.05 µM; GI50 [18]: 2010 nM; TGI [18]: 11.9 µM; GI50 [19]: 3.57 µM; TGI [19]: 13.5 µM; GI50 [20]: 1650 nM; TGI [20]: 5.45 µM; GI50 [21]: 1780 nM; TGI [21]: 4.44 µM; GI50 [22]: 2230 nM; TGI [22]: 9.68 µM; GI50 [23]: 1960 nM; TGI [23]: 4.62 µM; GI50 [24]: 2180 nM; TGI [24]: 8.26 µM; GI50 [25]: 2060 nM; TGI [25]: 6.07 µM; GI50 [26]: 1670 nM; TGI [26]: 9.57 µM; GI50 [27]: 1560 nM; TGI [27]: 5.45 µM; GI50 [28]: 2310 nM; TGI [28]: 10.2 µM; GI50 [29]: 1690 nM; TGI [29]: 4.8 µM; GI50 [30]: 1590 nM; TGI [30]: 4.05 µM; GI50 [31]: 832 nM; TGI [31]: 2210 nM; GI50 [32]: 2200 nM; TGI [32]: 9.94 µM; GI50 [33]: 3.25 µM; TGI [33]: 27 µM; GI50 [34]: 3.01 µM; TGI [34]: 12.5 µM; GI50 [35]: 3.08 µM; TGI [35]: 13.4 µM; GI50 [36]: 2980 nM; TGI [36]: 12.9 µM; GI50 [37]: 2420 nM; TGI [37]: 10.3 µM; GI50 [38]: 2950 nM; TGI [38]: 15.1 µM; GI50 [39]: 5.11 µM; TGI [39]: 17.6 µM; GI50 [40]: 2040 nM; TGI [40]: 5.62 µM; GI50 [41]: 3.1 µM; TGI [41]: 13.3 µM; GI50 [42]: 1290 nM; TGI [42]: 3.72 µM; GI50 [43]: 3.05 µM; TGI [43]: 11.9 µM; GI50 [44]: 1500 nM; TGI [44]: 4.97 µM; GI50 [45]: 1930 nM; TGI [45]: 6.55 µM; GI50 [46]: 4.79 µM; TGI [46]: 26.8 µM; GI50 [47]: 1770 nM; TGI [47]: 5.47 µM; GI50 [48]: 3.28 µM; TGI [48]: 11.6 µM; GI50 [49]: 3.34 µM; TGI [49]: > 100 µM; GI50 [50]: 2710 nM; TGI [50]: 12.7 µM; GI50 [51]: 2480 nM; TGI [51]: 13.9 µM; GI50 [52]: 3.39 µM; TGI [52]: 38.9 µM; GI50 [53]: 1740 nM; TGI [53]: 7.65 µM; GI50 [54]: 1860 nM; TGI [54]: 6.61 µM; GI50 [55]: 2750 nM; TGI [55]: 9.2 µM; GI50 [56]: 2950 nM; TGI [56]: 19.1 µM; GI50 [57]: 2420 nM; TGI [57]: 6.2 µM; GI50 [58]: 2100 nM; TGI [58]: 5.51 µM
